Test results from patent publication US20020076693A1, “Novel cell surface receptor for HIV retroviruses, therapeutic and diagnostic uses” (priority 1997, published 2002).
Where “and” joins values, the source holds several entries; their conditions need not be identical. Identical values can stand only once.

Columns and labels:
[1] = tested on: V3 loop-BPs; experiment: ELISA binding of proteins to coated V3 loop-BPs; parameters: species or system human; conditions: gp120 1 ng/ml, gp41 2 ng/ml, histone H3
Experimental: This is an ELISA-type experiment using the purified preparation of the V3 loop-BPs which was as described in FIG. 2 +L. The purified preparation of the V3 loop-BPs at different concentrations (12;5 to 200 ng/ml; abscissa) was coated to the plate before incubation with either gp120 (at 1 ng/ml; ), gp41 (at 2 ng/ml;), or histone H3 (1 μg/ml;). […] As a control mAb, we used mAb OKT4A specific for CD4. The abscissa gives the concentration of V3 loop-BPs in ng/ml. The ordinate gives the optical density (OD) values measured at 450 nm as an indicator of reactivity. An OD value less than 0.2 was considered as not significant. mAb OKT4A at 1 mg/ml gave an OD value of 0.20 when used in wells preincubated with either gp120, gp41, or histone H3. Rabbit antiserum against CXCR4 at dilutions as low as 1:200 generated an OD value of 0.15.
The resulting absorbance was measured at 450 nm.

[2] = target: CD4 (Homo sapiens, UniProt P01730); experiment: BIAcore biosensor binding to soluble CD4; conditions: binding protein soluble recombinant CD4, BIAcore
[3] = target: V3 loop-BPs; experiment: Inhibition of 5[Kψ(CH2N)PR]-TASP binding to the V3 loop-BPs (biosensor); parameters: species or system human; conditions: read-out: IC50 for the inhibition of 5[Kψ(CH2N)PR]-TASP binding to the V3 loop-BPs, increasing concentrations of gp120 HIV-1 Lai
[4] = tested on: V3 loop-BPs (nucleolin, PHAP II, PHAP I); experiment: BIAcore biosensor binding to immobilized V3 loop-BPs; parameters: species or system human; conditions: for Ka (equilibrium affinity constant) / ka (association rate constant) / kd (dissociation rate constant): binding protein(s) V3 loop-BPs, BIAcore; for equilibrium affinity constant Ka: binding to the V3 loop-BPs
[5] = tested on: HIV-1 Lai; experiment: HIV entry into HeLa P4 / P4-C5 cells (β-galactosidase activity), HIV-1 Lai; assay type: cell-based
[6] = tested on: VSV/HIV; assay type: cell-based
[7] = tested on: HIV-1 pseudotyped Mo-MLV virus; experiment: Infection of CEM cells by HIV-1 pseudotyped Mo-MLV virus (p24); conditions: p24 at 48 hours p.i., AZT 5 μM, TASP 5 μM
Experimental: CEM cells (2×10^5) were infected with the HIV-1 pseudoryped Mo-MLV virus (Experimental procedure) at 95 ng of p24/ml, in the absence (histogram Control) or presence of different additions (as indicated). The infection was monitored by the production of p24, which was measured in the culture supernatant at 48 hours p.i. The mean±SD of duplicate samples is given. Treatment of cells with the different antibodies was as in FIG. 6 +L. For a control of infection, cells were pretreated with 5 μM AZT before infection.
Hela cells were cotransfected by electroporation with plasmids pNL4-3 defective in env gene (Borman et al., 1995) and pE4070A expressing amphotrope envelope glycoproteins of Mo-MLV (Battini et al., 1996). Electroporation (Schwartz et al., 1996) was performed at 200 V, 960 μF, using a 4 mm wide cuvettes in a BIO-Rad Gene Pulser. The pseudotyped virus was recovered from the culture supernatant after 48 hours of culturing.

[8] = tested on: HIV-1 Ada-M; experiment: HIV-1 Ada-M entry into HeLa P4-C5 cells (β-galactosidase); assay type: cell-based; conditions: HeLa P4-C5, β-galactosidase at 48 hours
Experimental: HeLa cells (P4-C5) were treated (incubation at 37° C., 30 min) with AZT (5 μM), (α-CD4 mAb CBT4 (5 μg/ml) before infection with the different HIV isolates in order to obtain the background β-galactosidase activity compared to untreated cells (Control). During the same time, the different HIV isolates were treated (incubation at room temperature, 15 min) with 1, 5, and 10 μg/ml of heparin before addition to untreated cells. The b-galactosidase activity was assayed at 48 hours post-infection as a measure of HIV entry (3 +L7).

[9] = tested on: HIV-2 ROD; experiment: HIV entry into HeLa P4-C5 cells (β-galactosidase), HIV-2 ROD; assay type: cell-based; conditions: heparin 1, 5, 10 μg/ml
[10] = tested on: HIV-1 AZT resistant, Saquinavir resistant, Nevirapine resistant; experiment: Entry of HIV-1 isolates resistant to antiviral drugs into HeLa cells (β-galactosidase); assay type: cell-based; conditions: heparin 5 mg/ml
Experimental: HIV entry and replication, results in the activation of the HIV LTR, leading to the expression of the lacZ gene. Therefore, at 24 and 48 hours post-infection, the β-galactosidase activity could be measured in cell extracts directly. Consequently, this latter technique could be used to monitor HIV entry into cells. The HIV dose used corresponded to the amount of virus containing 20-40 ng/ml of p24.
In these experiments, the background values of the β-galactosidase activity were assesed by the samples incubated with the a-CD4 mAb. Furthermore, the effect of heparin (5 mg/ml) was investigated.

[11] = tested on: SIVmac; experiment: SIVmac entry into HeLa cells (β-galactosidase); assay type: cell-based, SIV; conditions: β-galactosidase at 48 hours
[12] = tested on: HIV-1 Bal; experiment: HIV entry into HeLa P4-C5 cells (β-galactosidase), HIV-1 Ba-L; assay type: cell-based; conditions: HIV-1 Ba-L; heparin; mAb a-V3 5 μg/ml
[13] = tested on: HIV-1 JRCSF; experiment: HIV entry into HeLa P4-C5 cells (β-galactosidase), HIV-1 JRCSF; assay type: cell-based; conditions: HIV-1 JRCSF; heparin 1, 5, 10 μg/ml

Compound | Ka (equilibrium affinity constant) [2] | ka (association rate constant) [2] | kd (dissociation rate constant) [2] | Ka (equilibrium affinity constant) [4] | ka (association rate constant) [4] | kd (dissociation rate constant) [4] | equilibrium affinity constant Ka [4] | other results
gp120 HIV-1 Lai: recombinant external envelope glycoprotein of HIV-1 Lai | 1.08e+09 M⁻¹ | 5.88 × 10^5 M^−1S^−1 | 54.50 × 10^−3 S^−1 | 2.1e+08 M⁻¹ | 4.40 × 10^5 M^−1S^−1 | 2.10 × 10^−3 S^−1 | 2.1e+08 M⁻¹ | binding to the purified V3 loop-BPs in ELISA [1]: bind in a dose-dependent manner; IC50 [3]: ~3 nM
Cc1cn([C@H]2C[C@H](N=[N+]=[N-])[C@@H](CO)O2)c(=O)[nH]c1=O [AZT, reference compound] | – | – | – | – | – | – | – | inhibition of HIV infection monitored by the production of p24 ([5]; AZT 5 μM): more than 99%; effect on VSV-HIV pseudotyped virus entry and replication [6]: inhibited; effect on infection by HIV-1 pseudotyped Mo-MLV virus [7]: inhibited
Heparin [reference compound] | – | – | – | – | – | – | – | effect on HIV-1 Ada-M entry [8]: inhibits; effect on viral entry (β-galactosidase activity at 48 hours post-infection) ([5]; HIV-1 LAI, heparin 1, 5, 10 μg/ml, mAb a-V3 5 μg/ml): inhibits; effect on viral entry (β-galactosidase activity at 48 hours post-infection) [9]: inhibits; effect on entry of drug-resistant HIV-1 isolates [10]: drastically inhibited; effect on SIVmac entry [11]: inhibits; effect on viral entry (β-galactosidase activity at 48 hours post-infection) [12]: no significant effect; effect on viral entry (β-galactosidase activity at 48 hours post-infection) [13]: no significant effect
gp120 HIV-1 SF2 2/3: nonglycosylated form of gp120 of HIV-1 SF2 (Env 2-3) | – | – | – | 1.6e+08 M⁻¹ | 3.80 × 10^5 M^−1S^−1 | 2.40 × 10^−3 S^−1 | 1.6e+08 M⁻¹ | –
gp120 HIV-1 SF2: recombinant gp120 of HIV-1 SF2 produced in CHO cells | 2.1e+08 M⁻¹ | 11.50 × 10^5 M^−1S^−1 | 5.60 × 10^−3 S^−1 | 2.32e+09 M⁻¹ | 0.65 × 10^5 M^−1S^−1 | 0.028 × 10^−3 S^−1 and 0.03 × 10^−3 S^−1 | 2.3e+09 M⁻¹ | –
gp120 HIV-1 MN: recombinant gp120 of HIV-1 MN | 7.7e+08 M⁻¹ | 2.98 × 10^5 M^−1S^−1 | 38.60 × 10^−3 S^−1 | 4.3e+08 M⁻¹ | 1.90 × 10^5 M^−1S^−1 | 0.44 × 10^−3 S^−1 | 4.3e+08 M⁻¹ | –
NCTRPNNNRKSIRIQRGPGRAFVTIGKIGNMRQAHCNIS [V3 loop-Lai, synthetic V3 loop peptide of T-cell tropic HIV-1 Lai] | – | – | – | – | – | – | 5.1e+06 M⁻¹ | –
NCTRPNNNTRKSIHIGPGRAFYTGEIIGDIRQAHCNLS [V3 loop-Ba-L, synthetic V3 loop peptide of macrophage-tropic HIV-1 Ba-L] | – | – | – | – | – | – | 1.5e+06 M⁻¹ | –
